Test results: US20080045560A1, “Pyrrolidine and related derivatives useful as PR modulators” (Wyeth, priority 2006, published 2008)

What was measured:
[1] = system: progesterone receptor (alkaline phosphatase activity in T47D cells); assay: Effects of progestins and antiprogestins on alkaline phosphatase activity in T47D cells (antagonist mode); format: cell-based; details: Homo sapiens, in the presence of 1 nM progesterone, 24 h; for inhibition at 0.003 µM: at 3 nM
Description: (1) Effects of Progestins and Antiprogestins on Alkaline Phosphatase Activity in T47D Cells.
• PURPOSE: To identify progestins or antiprogestins by determining a compound's effect on alkaline phosphatase activity in T47D cells.
Culture medium: • DMEM:F12 (1:1) (GIBCO, BRL) supplemented with 5% (v/v) charcoal stripped fetal bovine serum (not heat-inactivated), 100 U/mL penicillin, 100 μg/mL streptomycin, and 2 mM the GlutaMax™ reagent (GIBCO, BRL).
Alkaline phosphatase assay buffer: • I. 0.1M Tris-HCl, pH 9.8, containing 0.2% the Triton® X-100 reagent • II. 0.1M Tris-HCl, pH 9.8, containing 4 mM p-nitrophenyl phosphate (Sigma).
Frozen T47D cells were thawed in a 37° C. water bath and diluted to 280,000 cells/mL in culture medium. To each well in a 96-well plate (Falcon, Becton Dickinson Labware), 180 μL of diluted cell suspension was added.
Twenty μL of reference or test compounds diluted in the culture medium was then added to each well. When testing for progestin antagonist activity, reference antiprogestins or test compounds were added in the presence of 1 nM progesterone. The cells were incubated at 37° C. in a 5% CO2/humidified atmosphere for 24 h. NOTE: For high throughput screening, one concentration of each compound was tested at 0.3 μg/mL. Based on an average molecular weight of 300 g/mol for the compounds in the library, the concentration was approximately 1 μM. Subsequently, active compounds were tested in dose response assays to determine EC50 and IC50.
At the end of treatment, the medium was removed from the plate. Fifty μL of assay buffer I was added to each well. The plates were shaken in a titer plate shaker for 15 min. Then 150 μL of assay buffer II was added to each well. Optical density measurements were taken at 5 min intervals for 30 min at a test wavelength of 405 nm.
For reference and test compounds, a dose response curve was generated for dose (X-axis) vs. the rate of enzyme reaction (slope) (Y-axis). Square root-transformed data was used for analysis of variance and nonlinear dose response curve fitting for both agonist and antagonist modes. Huber weighting was used to down-weight the effects of outliers. EC50 or IC50 values were calculated from the retransformed values. JMP software (SAS Institute, Inc.) was used for both one-way analysis of variance and non-linear dose response analysis in both single dose and dose response studies.
Progesterone and trimegestone were reference progestins and RU486 was the reference antiprogestin. All reference compounds were run in full dose response curves and the EC50 and IC50 values were calculated.

Row | Structure (SMILES) | melting point [°C] | IC50 [1] [nM] | further results
1 | C[C@@H]1COC(=O)N1c1nc(-c2ccc(Br)cc2)cs1 [Example 1, (4R)-3-[4-(4-Bromophenyl)-1,3-thiazol-2-yl]-4-methyl-1,3-oxazolidin-2-one] | 197 to 199 | – | –
2 | CC1(C)CCC(=O)N1c1nc(-c2ccc(C#N)cc2)cs1 [Example 8, 4-[2-(2,2-Dimethyl-5-oxopyrrolidin-1-yl)-1,3-thiazol-4-yl]benzonitrile] | – | – | inhibition at 0.003 µM [1]: 50%
3 | CC1(C)C=CC(=O)N1c1nc(-c2ccc(C#N)cc2)cs1 [Example 7, 4-[2-(2,2-Dimethyl-5-oxo-2,5-dihydro-1H-pyrrol-1-yl)-1,3-thiazol-4-yl]benzonitrile] | – | – | inhibition at 0.003 µM [1]: 60%
4 | CCC1(CC)COC(=O)N1c1nc(-c2ccc(C#N)cc2)cs1 [Example 2, 4-[2-(4,4-Diethyl-2-oxo-1,3-oxazolidin-3-yl)-1,3-thiazol-4-yl]benzonitrile] | 145 to 147 | – | –

Further lines, with some results ahead:

Row | melting point [°C] | IC50 [1] [nM] | Structure (SMILES) | further results
5 | – | 31.6 | CC1(C)CCC(=O)N1c1nc(-c2ccc(C#N)cc2)c(F)s1 [Example 9, 4-[2-(2,2-Dimethyl-5-oxopyrrolidin-1-yl)-5-fluoro-1,3-thiazol-4-yl]benzonitrile] | –
6 | 181 to 183 | – | CC1(C)COC(=O)N1c1nc(-c2cccc(C#N)c2)cs1 [Example 3, 3-[2-(4,4-dimethyl-2-oxo-1,3-oxazolidin-3-yl)-1,3-thiazol-4-yl]benzonitrile] | –
7 | – | 4.8 | N#Cc1ccc(-c2csc(N3C(=O)C4CCC3CC4)n2)cc1 [Example 11, 4-[2-(3-oxo-2-azabicyclo[2.2.2]oct-2-yl)-1,3-thiazol-4-yl]benzonitrile] | –
8 | – | 44.4 | O=C1C2CCC(CC2)N1c1nc(-c2ccc(Br)cc2)cs1 [Example 10, 2-[4-(4-bromophenyl)-1,3-thiazol-2-yl]-2-azabicyclo[2.2.2]octan-3-one] | –
